Results reported in patent publication US20230129258A1, “HETEROTANDEM BICYCLIC PEPTIDE COMPLEXES” (BicycleTx Limited, priority 2019, published 2023).
Where “and” joins values, the source holds several entries; their conditions need not be identical. Identical values can stand only once.

Tests used:
[1] = tested on: CT26 #7 tumor tissue T cells; experiment: Flow cytometry of T cells in CT26 #7 tumor tissue 1 h after last Q3D dose; format: in vivo, BALB/c-hCD137 mice; conditions: 5 mg/kg ip Q3D, 1 h after 6th dose
Description: 1 hour after the last vehicle or BCY11863 dose the […] bearing mice were sacrificed and tumors were harvested, processed for single cell suspensions and stained for flow cytometry analysis for total T cells (CD45+CD3+), CD8+ T cells (CD45+CD3+CD8+), CD4+ T cells (CD45+CD3+CD4+) and regulatory T cells (Tregs; CD45+CD3+CD4+Foxp3+).

[2] = tested on: MC38 #13 tumors; experiment: Anti-tumor activity in syngeneic Nectin-4 overexpressing MC38 tumor model (MC38 #13); format: in vivo, C57BL/6J-hCD137 mice; conditions: for complete tumor responses: day 15; for complete responders: day 52, IV
Description: 6-8 weeks old C57BL/6J-hCD137 female mice were inoculated in the flank with 1×10^6 syngeneic Nectin-4 overexpressing MC38 cells (MC38 #13). When tumors reached 72 mm^3 size on average, mice were randomized to receive vehicle or BCY11863 (intraperitoneal administration). BCY11863 was administered (n=6 mice/treatment cohort) at either 1 mg/kg or 10 mg/kg either daily (QD) or every three days (Q3D). QD dosed mice received 16 doses of BCY11863 and Q3D dosed mice received […] of BCY11863. Tumor growth was monitored by caliper measurements until day 69 after treatment initiation. […] By day 48, 22 out of 24 BCY11863-treated animals had responded to the treatment completely and had no palpable tumors remaining.
6-8 week old female C57BL/6J-hCD137 mice [B-hTNFRSF9(CD137) mice; Biocytogen] were implanted subcutaneously with 1×10^6 MC38 #13 (MC38 cells engineered to overexpress murine Nectin-4) cells. Mice were randomized into treatment groups (n=6/cohort) when average tumor volumes reached around 95 mm^3 and were treated with a weekly dose of vehicle (25 mM histidine, 10% sucrose, pH7) or 10 mg/kg BCY11863 with two different dosing schedules for two dosing cycles (5 mg/kg BCY11863 at 0 h and 24 h on DO and D7, or 10 mg/kg at 0 h on DO and D7). All treatments were administered intravenously (IV). Tumor growth was monitored until Day 15 from treatment initiation.
At 3 weekly doses of 3, 10 and 30 mg/kg with dose fractionated weekly, biweekly and daily 6-8 week old female C57BL/6J-hCD137 mice [B-hTNFRSF9(CD137) mice; Biocytogen] were implanted subcutaneously with 1×10^6 MC38 #13 (MC38 cells engineered to overexpress murine Nectin-4) cells. Mice were randomized into treatment groups (n=6/cohort) when average tumor volumes reached around 107 mm^3 and were treated with 21 daily doses of vehicle (25 mM histidine, 10% sucrose, pH7). BCY11863 treatment was done at three different total dose levels (3, 10 and 30 mg/kg total weekly dose) fractionated in three different schedules (QD: daily; BIW: twice a week or QW: weekly). Different BCY11863 treatment cohorts received either 21 daily doses (0.43, 1.4 or 4.3 mg/kg), 6 twice weekly doses (1.5, 5 or 15 mg/kg) or 3 weekly doses (3, 10 or 30 mg/kg). All treatments were administered intravenously (IV). Tumor growth was monitored until tumor reached volumes over 2000 mm^3 or until 31 days after treatment initiation. Complete responders (animals with no palpable tumors) were followed until D52.

[3] = molecular target: T1, mouse Nectin-4 (Mus musculus, UniProt Q8R007); experiment: SPR direct binding to biotinylated Nectin-4 extracellular domain, mouse
T1 sequence (Q8R007 31-347 limits assumed): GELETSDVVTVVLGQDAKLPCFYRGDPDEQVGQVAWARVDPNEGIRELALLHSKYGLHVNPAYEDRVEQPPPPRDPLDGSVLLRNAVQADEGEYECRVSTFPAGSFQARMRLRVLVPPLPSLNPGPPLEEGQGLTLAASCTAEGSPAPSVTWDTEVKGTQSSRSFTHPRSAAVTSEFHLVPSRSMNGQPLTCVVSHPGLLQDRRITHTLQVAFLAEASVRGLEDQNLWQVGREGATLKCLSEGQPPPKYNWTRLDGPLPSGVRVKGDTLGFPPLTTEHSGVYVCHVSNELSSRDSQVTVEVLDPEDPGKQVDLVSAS
Text: (§1) The binding of BCY11863 to its primary target Nectin-4 and CD137 was characterized using surface plasmon resonance (SPR).

[4] = molecular target: CD137 (Homo sapiens, UniProt Q07011); experiment: CD137 reporter assay (Promega CD137 luciferase reporter, Jurkat cells) in co-culture with Nectin-4-expressing tumor cells; format: cell-based; set-up: host or cells: Jurkat reporter cells; conditions: for EC50: Arithmetic mean EC50 (nM)
CD137, sequence (Q07011 24-255): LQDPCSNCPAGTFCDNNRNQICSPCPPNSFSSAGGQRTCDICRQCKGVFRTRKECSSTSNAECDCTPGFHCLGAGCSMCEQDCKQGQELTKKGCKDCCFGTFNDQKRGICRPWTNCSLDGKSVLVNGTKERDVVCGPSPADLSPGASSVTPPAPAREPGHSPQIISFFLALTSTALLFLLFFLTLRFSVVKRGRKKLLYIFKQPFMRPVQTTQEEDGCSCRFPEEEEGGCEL

[5] = molecular target: T2, human Nectin-4 (Homo sapiens, UniProt Q96NY8); experiment: SPR direct binding to biotinylated Nectin-4 extracellular domain, human
T2 sequence (Q96NY8 32-349 limits assumed): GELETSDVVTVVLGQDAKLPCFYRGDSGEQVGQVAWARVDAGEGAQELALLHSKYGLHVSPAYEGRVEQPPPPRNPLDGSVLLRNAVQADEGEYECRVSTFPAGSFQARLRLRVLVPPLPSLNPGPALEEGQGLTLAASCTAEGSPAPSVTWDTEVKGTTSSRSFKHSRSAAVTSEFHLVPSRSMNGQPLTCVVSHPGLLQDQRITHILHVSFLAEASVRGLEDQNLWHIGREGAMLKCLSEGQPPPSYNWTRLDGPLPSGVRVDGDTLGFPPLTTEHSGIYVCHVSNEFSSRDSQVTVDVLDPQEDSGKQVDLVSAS
Text: as §1

[6] = KD, biotinylated ECD captured on streptavidin chip

For CCCC[C@@H]1NC(=O)[C@H](Cc2ccc(O)cc2)NC(=O)[C@@H]2CCCN2C(=O)[C@H](CC(=O)O)NC(=O)[C@H](C)NC(=O)[C@H](Cc2ccccc2)NC(=O)[C@@H]2CSCCC(=O)N3CN(CN(C3)C(=O)CCSC[C@@H](C(=O)N[C@@H](C)C(N)=O)NC1=O)C(=O)CCSC[C@H](NC(C)=O)C(=O)N[C@@H](CC(C)(C)C)C(=O)N1CCC[C@H]1C(=O)N[C@@H](CCC(=O)O)C(=O)N[C@H](CCCCNC(=O)CCc1cn(CCOCCOCCOCCN(CCOCCOCCOCCC(=O)N[C@H]3CSCCC(=O)N4CN5CN(C4)C(=O)CCSC[C@H](NC(=O)[C@@H](CC(=O)O)NC(=O)[C@H](Cc4cccc6ccccc46)NC(=O)[C@@H]4CCCN4C3=O)C(=O)N[C@@H](CCSC)C(=O)N[C@@H](CCCCNC(=N)N)C(=O)N[C@@H](CC(=O)O)C(=O)N[C@@H](Cc3c[nH]c4ccccc34)C(=O)N[C@@H](CO)C(=O)N[C@@H]([C@@H](C)O)C(=O)N3CCC[C@H]3C(=O)N3C[C@H](O)C[C@H]3C(=O)N[C@@H](Cc3c[nH]c4ccccc34)C(=O)N[C@H](C(N)=O)CSCCC5=O)CCOCCOCCOCCn3cc(CCC(=O)NCCCC[C@H]4NC(=O)[C@H](CCC(=O)O)NC(=O)[C@@H]5CCCN5C(=O)[C@H](CC(C)(C)C)NC(=O)[C@@H](NC(C)=O)CSCCC(=O)N5CN6CN(C5)C(=O)CCSC[C@H](NC(=O)[C@H](Cc5ccc(O)cc5)NC(=O)[C@@H]5CCCN5C4=O)C(=O)N[C@@H](Cc4ccccc4)C(=O)N[C@@H](C)C(=O)N[C@@H](CC(=O)O)C(=O)N4CCC[C@H]4C(=O)N[C@@H](Cc4ccc(O)cc4)C(=O)N[C@@H](CCCC)C(=O)N[C@H](C(=O)N[C@@H](C)C(N)=O)CSCCC6=O)nn3)nn1)C(=O)N1CCC[C@H]1C(=O)N[C@@H](Cc1ccc(O)cc1)C(=O)N2 [BCY11863], the “CD8+ T cells in tumor” value ([1]; p<0.0001) was “significant increase”, the “total T cells (CD45+CD3+) in tumor” value ([1]; p<0.0001) was “significant increase” and the “CD8+ T cell/Treg ratio in tumor” value ([1]; p<0.05) was “significant increase”. The tumor growth ([2]; 1 or 10 mg/kg, QD or Q3D, ip, p<0.05 vs vehicle, 2 cohorts by day 7, all by day 14) was “significant reduction”, the “animals responded completely, no palpable tumors” value ([2]; by day 48, all cohorts, 1 or 10 mg/kg, QD or Q3D, ip) was 22 out of 24 and the complete tumor responses ([2]; 5 mg/kg at 0 h and 24 h on D0 and D7, IV) was 4 out of 6. For the same molecule, the complete tumor responses ([2]; 10 mg/kg at 0 h on D0 and D7, IV) was “one out of 6”, the complete responders ([2]; 5 mg/kg BIW) was 6/6 and the complete responders ([2]; BIW (1.5, 5 or 15 mg/kg)) was 15/18. For the same molecule, the complete responders ([2]; QD (0.43, 1.4 or 4.3 mg/kg)) was 12/18, the complete responders ([2]; QW (3, 10 or 30 mg/kg)) was 6/18 and the Kd [3, 6] was 5 to 27 nM. The Kd ([3]; SPR KD Mouse (25° C.), Direct Binding, biotinylated Nectin-4 extracellular domain, 25° C.) was 4.6 ± 2.1 nM, the EC50 ([4]; co-culture with CT26#7 (mouse)) was 0.14 ± 0.07 nM and the EC50 ([4]; co-culture with HT1376 (human), Table 1B) was 0.52 ± 0.3 nM. The EC50 ([4]; co-culture with MC38#13 (mouse)) was 0.31 ± 0.26 nM, the EC50 ([4]; co-culture with MDA-MB-468 (human)) was 0.23 ± 0.01 nM and the EC50 ([4]; co-culture with NCI-H292 (human), Table 1B) was 0.28 ± 0.2 nM. The EC50 ([4]; co-culture with NCI-H322 (human)) was 0.33 ± 0.21 nM, the EC50 ([4]; co-culture with T47D (human)) was 0.42 ± 0.24 nM and the “CD137 activation in CD137 reporter assay” value ([4]; FIG. 1A, Nectin-4 expressing H292 cells) was “induces strong CD137 activation”. The “Fold improvement in EC50 over BCY10000 on same plate” value ([4]; co-culture with NCI-H292) was 4.56 fold, the “Fold improvement in Emax over BCY10000 on same plate” value ([4]; co-culture with NCI-H292) was 2.16 fold and the “Fold Induction over Background” value ([4]; co-culture with NCI-H292, Table 1A) was 81 ± 29 fold. For the same molecule, the Kd [5, 6] was 5 to 27 nM and 4.1 nM, the Kd ([5]; SPR KD Human (25° C.), Direct Binding, biotinylated Nectin-4 extracellular domain, 25° C.) was 5 ± 2.1 nM and the Kd ([5]; SPR KD Human (37° C.), Direct Binding, biotinylated Nectin-4 extracellular domain, 37° C.) was 5.2 ± 1.1 nM.
